Values of other authors, collected in US20050244461A1, “Controlled release drug delivery systems and methods for treatment of an eye” (Allergan, Inc., priority 2004, published 2005).

Conditions: in vivo efficacy; 25 mg hydrocortisone equivalent to 1 mg dexamethasone; Goodman and Gilman

In the case of `C[C@]12CCC(=O)C=C1CC[C@@H]1[C@@H]2[C@@H](O)C[C@@]2(C)[C@H]1CC[C@]2(O)C(=O)CO` [hydrocortisone], the “Potency relative to dexamethasone” value is given as “approximately twentyfivefold less potent than dexamethasone”.
